The results in this text go back to patent publication EP4796540A2, “N-SULFONAMIDE NITROGEN-CONTAINING FUSED HETEROCYCLIC COMPOUND, AND APPLICATION THEREOF” (priority 2023, dated 2025).

In series [1] the test system is human gastric cancer NUGC-3 xenograft. The experiment in a line: In vivo efficacy study in human gastric cancer NUGC-3 xenograft mouse model. More on the design: species or system NUNU mice. The following applies: mice; for Tumor volume (mm^3) (at 19 days): Mean ± SEM. As to the method:
1. Experimental purpose: To test the in vivo anti-tumor activity of compounds in the subcutaneous human gastric cancer NUGC-3 xenograft model in female NUNU mice. 2. Experimental materials: Animals: 6 to 8 weeks old female NUNU mice; Reagents:
Cpd-A vehicle: 0.2% HPC, 0.5% Tween80 in water (w/v/v); Cpd-2 vehicle: 5% DMSO/10% Solutol HS 15/85% pH 4.65 ± 0.10 acetate buffer.
Cell culture: NUGC-3 cells were cultured in RPMI-1640 medium containing 10% FBS.
Molding and grouping: NUGC-3 cells in the exponential growth phase (5 × 10^6) were harvested, resuspended in 0.2 mL of PBS and Matrigel (1:1), and then inoculated subcutaneously into the right flank of NUNU mice to establish a subcutaneous xenograft model. Mice were observed daily for healthy status and tumor growth after cell inoculation. On the 5th day after inoculation, 36 animals were selected, grouped, and the tumor volume of the animals in the group was approximately 150.0 mm^3. The study was divided into 6 groups, with 6 mice in each group, and the administration was performed on the same day (see Table 10).
4. Experimental design: Table 10 is the grouping and administration information for the efficacy experiment. Mice in the G1 group were orally administered vehicle control (5% DMSO/10% Solutol HS 15/85% pH 4.65 ± 0.10 acetate buffer) once a day for a total of 19 days. Mice in the G2 group were orally administered Cpd-A once a day at a dose of 50 mg/kg for a total of 19 days. Mice in the G3 group were orally administered Cpd-A once a day at a dose of 100 mg/kg for a total of 19 days. Mice in the G4 group were orally administered Cpd-2 once a day at a dose of 25 mg/kg for a total of 19 days. Mice in the G5 group were orally administered Cpd-2 once a day at a dose of 50 mg/kg for a total of 19 days. Mice in the G6 group were orally administered Cpd-2 once a day at a dose of 100 mg/kg for a total of 19 days. Table 10. In vivo efficacy study design of NUGC-3 xenograft mouse model
Experimental observation: The health status and mortality of the animals were monitored daily. Routine checks included observing the effect of tumor growth and drug treatment on animals' normal behavior such as mobility, food and water consumption, body weight gain/loss, eye/hair matting and any other abnormal effect. The number of deaths and side effects of the animals in the group were recorded based on the number of the animals in each group. Clinical symptoms observed during the trial were recorded in the raw data. Tumor volume calculation formula: Tumor volume (mm^3) = 0.5 × (tumor long diameter × tumor short diameter^2). During the research process, the entire administration process as well as tumor and body weight measurements were conducted in a Laminar Flow Cabinet.
Statistical analysis: Tumor volume and animal body weight results are expressed in Mean ± SEM. Tumor volumes between different groups were statistically compared and analyzed. All statistical analyses were completed in GraphPad Prism 8.0. The one-way ANOVA method was used to compare whether there was a significant difference in tumor volume or tumor weight between groups, where p ≥ 0.05 was considered as having no significant difference, p < 0.05 was considered as having a significant difference, and p < 0.001 was considered as having an extremely significant difference.
In general terms: A xenograft is tissue or cells of one species grown in another, often human tumour cells in immunodeficient mice.

Series [2] can be described thus: In vivo pharmacokinetic study in rats. The following applies: rat, plasma; SD rats (male), IV 1 mg/kg; read-out: Clint. How it is done:
1. Experimental purpose: To test the pharmacokinetics of compounds in SD rats. 2. Experimental instrument and materials: Animal: SD rats (male) Instrument: Intravenous injection: 40% HP-β-CD in water; intragastric administration: 0.2% HPC + 0.5% Tween80 in water. 6 male rats. Fasting treatment was performed in the evening before the administration, with free access to water. During the experiment, the rats were allowed to eat and drink freely, and administered by intravenous injection or gavage. After administration, the animal status was observed, and abnormal behaviors were recorded. Blood was collected via jugular vein puncture at 0.0833, 0.25, 1, 2, 4, 8, and 24 hours after intravenous injection; Blood was collected via jugular vein puncture at 0.25, 0.5, 1, 2, 4, 6, 8, and 24 hours after intragastric administration. 50 µL of plasma sample was taken and added with 500 µL of acetonitrile (containing dexamethasone as an internal standard) to precipitate proteins. The mixture was centrifuged at 4°C and 4000 rpm for 20 minutes, and 300 µL of the supernatant was taken and mixed with 300 µL of Watsons aqueous solution in a 96-well plate. […] Unknown samples were calculated by the standard curve. Pharmacokinetic parameters were calculated by the non-compartmental analysis model of WinNonlin 8.2 software and were presented in a report, including Clint, Cmax, AUC, etc. […]

Each structure is given as a SMILES string. Where “and” joins values, the source holds several entries; their conditions need not be identical. Equal values may be shown once.

Consider `[2H]C([2H])([2H])Oc1nc(C(=O)NS(C)(=O)=O)ccc1NCC#Cc1cc2c(N[C@@H]3CCN(C)C[C@@H]3F)cccn2c1CC(F)(F)F` [Cpd-2, 5-((3-(8-(((3S,4R)-3-Fluoro-1-methylpiperidin-4-yl)amino)-3-(2,2,2-trifluoroethyl)indolizin-2-yl)prop-2-yn-1-yl)amino)-6-(methoxy-d3)-N-(methylsulfonyl)picolinamide], for which the “TGI (%) (at 19 days)” value was found to be 65.1% in series [1] (25 mg/kg PO QD*19 Days), 96.1% in series [1] (50 mg/kg PO QD*19 Days) and 103.6% in series [1] (100 mg/kg PO QD*19 Days). The “Tumor volume (mm^3) (at 19 days)” value was 615.1 mm^3 and 615.1 ± 157.6 mm^3 in series [1] (25 mg/kg PO QD*19 Days); 202.2 mm^3 and 202.2 ± 57.9 mm^3 in series [1] (50 mg/kg PO QD*19 Days); 102.5 mm^3 and 102.5 ± 42.1 mm^3 in series [1] (100 mg/kg PO QD*19 Days). Moreover, the clearance in series [2] was determined as 3.3 mL/min/kg.
